# Assay results reported in US9623062B2, “Anti-ageing activity of camphor in fibroblast cell line” (Jeju National University Industryacademic Cooperation …, priority 2014, dated 2017).
# Legend:
# [1] = test system: fibroblast cells (SA-β-gal); assay: Senescence-associated β-galactosidase activity in fibroblasts; type: cell-based, human
# Description: Fibroblast cells were incubated in 6-well plate at a density of 1×10^4 cells/well. Then the culture supernatants were removed and the cells were treated 72 h with only camphor (260 μM) or H2O2 600 μM and 800 μM or co-treated camphor and H2O2 in fresh media; ethanol containing media and media only were used as negative controls. In some experiments, H2O2 was pretreated on fibroblast cells 72 h and replaced with or without camphor treatment (260 μM) 48 h. After treatment, cells were washed twice with PBS and fixed 10 minutes in 4% formaldehyde. Then, this was followed by washing 3 times with wash solution (100 mM Na2HPO4 set to pH 6 with 100 mM Citric Acid). Cells was incubated overnight at 37° C. in freshly made staining solution (5 mM K3Fe(CN)6, 5 mM K4Fe(CN)6, 2 mM MgCl2, 150 mM NaCl, 40 mM Na2HPO4, 1 mg/mL bromo-chloro-indolyl-galactopyranoside (X-Gal), set to pH 6 with 100 mM citric acid). Next day, cells was washed the staining solution with PBS and taken picture by microscope and β-galactosidase-positive cell number ratio was calculated.
# [2] = test system: fibroblasts; assay: ROS production by DCFH-DA flow cytometry in fibroblasts; type: cell-based, human; conditions: for increase of ROS production compared to non-treated cells: fibroblasts, 24 hours after treatment, FIG. 4A
# Description: To analyze the reactive oxygen species (ROS), the cells were seeded in 60 mm culture dishes at a density of 2×10^4 cells/mL, and then treated with 10% chamomile hydrosol for 0, 6, 12, and 24 hours. The cells were stained with 2′-7′-dichlorodihydrofluorescein diacetate (DCFH-DA) for 15 minutes, collected in a 15 mL tube, and then washed with PBS. The cells were re-suspended in 500 μl of PBS, and measured for a level of ROS. For the cell cycle analysis, the treated cells were harvested and fixed overnight in 70% ethanol at 4° C. After 24 hours, the cells were rehydrated in 2 mM EDTA-BPS with RNase A (25 ng/ml), and stained with PI (40 μg/ml). All the analyses were performed using a FACS Caliber flow cytometer (BD Biosciences), and each sample were analyzed by counting 10,000 cells.
# [3] = molecular target: T1, porcine pancreatic elastase (PPE (Type IV)) (Sus scrofa, UniProt P00772); assay: Elastase assay; type: biochemical; conditions: camphor 0-3200 μM, n-Suc-(Ala)3-nitroanilide substrate, FIG. 5B
# T1 construct: purchased Sigma
# Description: The inhibition of different concentrations of camphor on porcine pancreatic elastase (PPE (Type IV), Sigma) activity was examined using n-Suc-(Ala)3-nitroanilide as the substrate, and the release of nitroaniline was measured at 410 nm. The reaction was carried out in a 200 mM Tris-HCl buffer (pH 8.0) containing 0.8 mM N-Suc-(Ala)3-nitroanilide and 5 μg/mL elastase. Different concentrations of camphor (0-3200 μM) were added to the reaction mixture to reach a final volume of 320 μl, and elastase inhibition was assessed in 96 well-plate reader at 25° C. The reaction mixture was pre-incubated for 10 minutes before addition of the substrate. The change in absorbance was measured at 410 nm using a 96-well reader. The percentage of elastase activities was calculated by the following equation: Enzyme activity (%)=100−[(B−A)/A]×100]
# wherein A represents an absorbance at 410 nm without camphor, and B represents an absorbance at 410 nm with camphor.
# [4] = test system: PI3K/AKT and MAPK signaling cascades; assay: Western blot of PI3K/AKT/ERK/4E-BP1 phosphorylation in fibroblasts; type: cell-based, human
# Description: (§1) After 0, 6, 12, 24 h treatment, cells were collected and lysed in lysis buffer (100 mM Tris-Hcl [pH 8], 250 mM NaCl, 0.5% Nonidet P-40, and 1× protease inhibitor cocktail) and sonicated few times then kept on ice for 30 min. The cell lysates were centrifuged at 13,000 rpm for 30 min at 4° C. The supernatant were collected and determined the concentration by BCA™ Protein assay (Pierce, Rockford, Ill.). For detecting MMP 1 and collagen I, and collagen III, we collected the media and centrifuging 400×g for 1 h at 4° C. by using Amicon Ultra 10K and determined the concentration by Bradford assay. Aliquots of the lysated were separated by 10-15% SDS-PAGE, and transferred to PVDF membranes using a glycine transfer buffer (192 mM glycine, 25 mM Tris-HCl [pH 8.8], and 20% [v/v] methanol). After blocking with Skim milk 5% overnight at 4° C., the membrane were incubated with primary antibodies for 1 h RT or overnight at 4° C. and then for 1 h with secondary antibodies. Primary antibodies were diluted at ratio 1:1000 whereas the anti-β-actin primary and secondary antibodies (horseradish peroxidase-conjugated goat anti-mouse IgG) (Vector Laboratories, Burlingame, Calif.) were diluted at ratio 1:10,000. Protein bands were detected using the WEST-ZOL® plus Western Blot Detection System (iNtRON, Gyeonggi-do, Korea).
# [5] = test system: collagen types I, III and IV and collagenase MMP1; assay: Western blot of collagen types and MMP1; type: cell-based, human; conditions: camphor treatment
# Description: as §1
# [6] = test system: Primary dermal fibroblast cells; assay: MTT cell viability of fibroblasts; type: cell-based, human
# Description: Fresh human foreskin specimens were obtained from 8 donors aged from 6 to 12 years, who received a routine circumcision procedure of Jeju National University Hospital, Korea. After being digested with 0.1% […] (Worthington Biochemical Corporation, Lakewood, N.J.) at 4° C. overnight, the epidermal layers were removed, and the remaining dermal parts were further digested with 0.1% collagenase I (Worthington) at 37° C. for another 4 h. The digested cells were then passed through a […] cell strainer (BD Biosciences, Mississauga, ON, Canada), centrifuged, and resuspended in high-glucose DMEM (Gibco, Invitrogen, Carlsbad, Calif.), supplemented with 10% FBS (Gibco, Invitrogen, Carlsbad, Calif.), 100 U/ml penicillin, and 100 μg/ml streptomycin (all from PAA Laboratories, Linz, Austria). Cells were seeded on tissue culture plates at 1×10^3 cells/cm2, and maintained at 37° C. with 5% CO2. After 24 h, the plates were washed with PBS to remove residual non-adherent cells. The resulting adherent cells were grown to confluence within 7 days. Primary dermal fibroblast (2×10^4 cells/ml) cells were plated in 96-well plates in 200 μl of medium containing 10% FBS. After 24 h, the cells were treated with different concentrations of chamomile hydrosol or camphor. […] Cell viability was determined from the absorbance at 570 nm, measured using a Sunrise microplate reader (Tecan, Salzburg, Austria). […]
# [7] = test system: Fibroblast cells; assay: Total collagen assay (Sircol); type: cell-based, human; conditions: cells treated with camphor vs non-treated control, FIG. 5C
# Description: Total collagen was quantified in culture media using the Sircol Soluble Collagen Assay kit (Biocolor, Newtownabbey, Northern Ireland) by quantitative dye-binding method, according to the manufacturer's instruction. Fibroblast cells were seeded in 6-well culture plates at density 2×10^5 cells/well with 2 ml/well media with or without camphor (260 μM) and incubated for different time points (6 h, 12 h, 24 h). After treatment, 200 μl sample medium of each group was transferred to a 1.5 ml centrifuge tube and 1 ml Sircol dye reagent was added into each tube. The mixed contents were incubated at room temperature for 30 min. Then the tubes were centrifuged at 10000 g for 10 minutes. The supernatants were drained off and discarded. The remaining pellets were mixed with 1 ml Alkali reagent and gently mixed until the pellets dissolved completely. The solutions were transferred to a 96-well plate and read absorbance at 540 nm. A standard curve was made simultaneously by standard collagen stock solution (0.5 mg/m1).
# T1 sequence (P00772 27-266): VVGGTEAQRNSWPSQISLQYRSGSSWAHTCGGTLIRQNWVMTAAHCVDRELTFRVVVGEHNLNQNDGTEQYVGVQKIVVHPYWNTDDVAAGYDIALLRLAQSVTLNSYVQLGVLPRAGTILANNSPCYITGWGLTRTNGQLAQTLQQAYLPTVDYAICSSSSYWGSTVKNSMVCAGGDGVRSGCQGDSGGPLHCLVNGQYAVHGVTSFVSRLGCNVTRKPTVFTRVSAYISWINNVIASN
Compound,"SA-β-gal-positive cells ([1]; H2O2 alone vs control, FIG. 5A)",increase of ROS production compared to non-treated cells [2],elastase activity inhibition [3],"reversal of cellular senescence ([1]; cells pre-treated with H2O2 at 800 μM, then camphor)","SA-β-gal-positive cells ([1]; co-treatment of camphor with 600 and 800 μM H2O2, 72 h)","number of senescent cells ([1]; pre-treated with 600 μM H2O2 for 3 days, then camphor for 2 days)","phosphorylated forms of 4E-BP1 ([4]; fibroblasts treated with camphor, FIG. 3B)","phosphorylation of PI3K, AKT, and ERK ([4]; fibroblasts treated with camphor, time-dependent, FIG. 3B)",expression of MMP1 [5],volume of collagen types III and IV ([5]; FIG. 5D),"fibroblast viability ([6]; camphor from 32.25 μM to 260 μM, FIG. 3A)",total volume of collagen [7],"phosphorylation of PI3K, AKT, 4EBP1, and ERK increased by camphor, after NAC pre-treatment ([4]; NAC pre-treatment plus camphor, FIG. 4D)","cell viabilities enhanced by camphor when ROS scavenged by NAC ([6]; NAC pre-treatment, then camphor, FIG. 4C)","camphor-induced ROS production after NAC pre-treatment ([2]; fibroblasts pre-treated with NAC, then camphor 24 hours, FIG. 4B)"
"OO [H2O2, reference compound]",dramatically induced SA-β-gal-positive cells,53%,–,–,–,–,–,–,–,–,–,–,–,–,–
"CC1(C)C2CC[C@@]1(C)C(=O)C2 [camphor, (1R)-1,7,7-Trimethylbicyclo[2.2.1]heptan-2-one]",–,approximately 13%,inhibited the elastase activity in a concentration-dependent manner,did not significantly reverse the cellular senescence,reduced the SA-β-gal-positive cells,significantly decreased,observed,increased the phosphorylation,no change,increased,increased the fibroblast viability,increased,–,–,–
"CC(=O)N[C@@H](CS)C(=O)O [NAC, N-acetyl-L-cysteine, reference compound]",–,–,–,–,–,–,–,–,–,–,–,–,reduced the phosphorylation,decreased,decreased the induced ROS production
